# From patent US20240066043A1, “PHARMACEUTICAL CO[…] IMPROVED DISSOLUTION AND RAPID ONSET BY TARGETED STOMACH AND MUCOSAL RELEASE” (Xpira Pharmaceuticals Inc., priority 2022, published 2024)
# Like-named read-outs stand apart in the source and are kept apart here.
# Legend:
# [1] = Particle size analysis from SEM micrographs (circle equivalent diameter); assay type: physicochemical; settings: SEM micrograph FIG. 4B, unformulated psilocybin
# [2] = cited from earlier work
# [3] = cited from earlier work; remark: listed apart in the source
# [4] = biological target: T1, neocortical serotonin 5-HT2A receptors (Homo sapiens, UniProt P28223); settings: 25 mg oral dose (Madsen et al., 2019); cited from earlier work
# T1 construct: host or cells: neocortex in vivo
# [5] = cited from earlier work; remark: listed apart in the source
# [6] = Flowability measurements (bulk density, tapped density, Hausner ratio, compressibility index)
# [7] = cited from earlier work; remark: listed apart in the source
# [8] = oral 0.224 mg/kg psilocybin (10 to 20 mg) (Hasler et al., 1997)
# [9] = oral psilocybin (Brown et al., 2017)
# T1 sequence (P28223 whole entry): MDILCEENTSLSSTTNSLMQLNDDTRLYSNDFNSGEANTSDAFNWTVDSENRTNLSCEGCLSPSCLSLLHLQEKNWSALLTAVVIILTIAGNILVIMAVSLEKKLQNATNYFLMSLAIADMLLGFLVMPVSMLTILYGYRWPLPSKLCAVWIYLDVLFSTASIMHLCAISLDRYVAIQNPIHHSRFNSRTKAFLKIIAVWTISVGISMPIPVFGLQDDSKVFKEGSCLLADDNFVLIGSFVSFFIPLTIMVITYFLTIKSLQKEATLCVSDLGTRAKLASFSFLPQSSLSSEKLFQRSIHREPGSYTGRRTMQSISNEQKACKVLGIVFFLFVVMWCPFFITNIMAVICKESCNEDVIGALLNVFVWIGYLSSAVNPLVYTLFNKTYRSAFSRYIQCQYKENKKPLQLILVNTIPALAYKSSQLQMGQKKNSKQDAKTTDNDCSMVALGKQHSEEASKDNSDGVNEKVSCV
structure (smiles),measurement,setting,value
"CN(C)CCc1c[nH]c2cccc(OP(=O)(O)O)c12 [Psilocybin, 3[2-(dimethylamino)ethyl]-1H-indol-4-yl] dihydrogen phosphate]",crystal size,[1],≤ 30 μm
same,solubility,[2]; boiling methanol,120 parts
same,solubility,[2]; boiling water,20 parts
same,stability,[2]; dark storage at controlled room temperature,stable over extended periods
same,peak of psychoactive effects,[3]; after a dose,about two hours
same,onset of noticeable psychoactive effects,[3]; after an oral dose,within one hour
same,loss of psychoactive effects,[3]; after the dose,around six hours
same,occupancy of neocortical serotonin 5-HT2A receptors,[4],near-maximal occupancy
same,"pharmacokinetics of psilocybin (as psilocin), dose linearity","[5]; dose range 0.3-0.6 mg/kg (Brown et al., 2017; Hasler et al., 2002)",linear
same,estimated dose-normalized bioavailability of psilocybin,"[5]; oral 0.224 mg/kg psilocybin, N=3 (Hasler et al., 1997)",52.7±20%
same,bioavailability,[5]; oral psilocybin,~50%
same,Bulk density,[6]; USP41-NF36 616,0.19 g/mL
same,Tapped density,[6]; USP41-NF36 616,0.45 g/mL
same,Compressibility index,[6]; USP41-NF36 1174,58%
same,Hausner ratio,"[6]; tap density divided by bulk density, USP41-NF36 1174",2.36
CN(C)CCc1c[nH]c2cccc(O)c12 [psilocin],time until psilocin detectable in plasma,[5]; after administration of the parent compound psilocybin,≤ 20 min
same,time until psilocin appears in plasma,[5]; after oral administration,≤ 15 min
same,psilocin half-life,"[5]; following oral administration of psilocybin (Brown et al., 2017)",approximately 3±1.1 hours
same,half-life of psilocin in blood,[5]; in vivo,2 to 3 h
same,average blood concentration of the active metabolite psilocin,[5]; [8],8.2 ± 2.8 ng/mL
same,time of average blood concentration of psilocin,[5]; [8],105 ± 37 min
same,time of peak psilocin levels,[5]; [9],approximately 80 minutes
same,time psilocin is detectable after administration,[5]; [9],up to 24 hours
same,share of overall clearance of psilocin through renal excretion,"[5]; urine over 24 hours after a single dose (Hasler et al., 2002)",less than 4%
same,time to maximum plasma levels,"[7]; oral, rats (Chen et al., 2011)",approximately 90 minutes
same,total volume of psilocin absorbed from the digestive tract,"[7]; psilocybin administered orally to rats (Kalberer et al., 1962)",approximately 50%
